ChEMBL document CHEMBL3286112, “Novel aza-analogous ergoline derived scaffolds as potent serotonin 5-HT₆ and dopamine D₂ receptor ligands” (J Med Chem, 2014)
Activity calls are given as the source filed them. The rule behind the calls is not given here.

Assays:
D(2) dopamine receptor [1] = molecular target: T1, D(2) dopamine receptor (Homo sapiens, UniProt P14416); experiment: Intrinsic activity at human dopamine D2L receptor expressed in CHOK1a cell membrane assessed as [125I]-cAMP accumulation after 20 mins; format: functional, cell-based
D(2) dopamine receptor [2] = molecular target: T1, D(2) dopamine receptor; experiment: Displacement of [3H]raclopride from human dopamine D2L receptor expressed in CHOK1a cell membrane after 180 mins by scintillation counting analysis; format: cell membranes
[3] = Clearance in human; format: ADME, organism-based; conditions: in vivo
[4] = molecular target: T2, 5-hydroxytryptamine receptor 2C (Homo sapiens, UniProt P28335); experiment: Displacement of [3H]5-HT from 5-HT2C receptor (unknown origin) expressed in hamster AV12 cells; format: cell-based
T2 sequence (P28335 whole entry): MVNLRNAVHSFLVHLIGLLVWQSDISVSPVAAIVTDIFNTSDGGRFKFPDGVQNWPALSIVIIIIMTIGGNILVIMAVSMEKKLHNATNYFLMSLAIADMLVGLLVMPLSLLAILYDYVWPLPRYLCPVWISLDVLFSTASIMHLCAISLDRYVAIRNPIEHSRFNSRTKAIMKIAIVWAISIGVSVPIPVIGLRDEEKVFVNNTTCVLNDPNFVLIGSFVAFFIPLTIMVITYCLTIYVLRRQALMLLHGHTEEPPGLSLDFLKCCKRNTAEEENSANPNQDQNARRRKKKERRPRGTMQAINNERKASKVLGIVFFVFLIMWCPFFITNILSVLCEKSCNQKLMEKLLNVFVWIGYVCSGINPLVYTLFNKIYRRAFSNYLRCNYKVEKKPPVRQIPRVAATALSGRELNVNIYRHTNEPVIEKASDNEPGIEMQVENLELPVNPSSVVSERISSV

[5] = molecular target: T3, 5-hydroxytryptamine receptor 6 (Homo sapiens, UniProt P50406); experiment: Antagonist activity at human 5-HT6 receptor expressed in CHO cells assessed as reduction in serotonin-induced cAMP accumulation after 30 mins by HTRF assay; format: functional, cell-based
[6] = molecular target: T2, 5-hydroxytryptamine receptor 2C; experiment: Displacement of [3H]mesulergine from human 5-HT2C receptor expressed in human tsA201 cells after 1 hr by scintillation counting analysis; format: cell-based
[7] = molecular target: T3, 5-hydroxytryptamine receptor 6; experiment: Displacement of [3H]LSD from human 5-HT6 receptor expressed in hamster BHK cells after 60 mins by scintillation counting analysis; format: cell-based
[8] = molecular target: T3, 5-hydroxytryptamine receptor 6; experiment: Displacement of [3H]LSD from human 5-HT6 receptor expressed in human HeLa cells after 1 hr by scintillation spectroscopic analysis; format: cell-based
tsA201 = experiment: Selectivity ratio of Ki for human 5-HT2C receptor expressed in human tsA201 cells to Ki for human 5-HT6 receptor expressed in hamster BHK cells; format: cell-based

T3 sequence (P50406 whole entry): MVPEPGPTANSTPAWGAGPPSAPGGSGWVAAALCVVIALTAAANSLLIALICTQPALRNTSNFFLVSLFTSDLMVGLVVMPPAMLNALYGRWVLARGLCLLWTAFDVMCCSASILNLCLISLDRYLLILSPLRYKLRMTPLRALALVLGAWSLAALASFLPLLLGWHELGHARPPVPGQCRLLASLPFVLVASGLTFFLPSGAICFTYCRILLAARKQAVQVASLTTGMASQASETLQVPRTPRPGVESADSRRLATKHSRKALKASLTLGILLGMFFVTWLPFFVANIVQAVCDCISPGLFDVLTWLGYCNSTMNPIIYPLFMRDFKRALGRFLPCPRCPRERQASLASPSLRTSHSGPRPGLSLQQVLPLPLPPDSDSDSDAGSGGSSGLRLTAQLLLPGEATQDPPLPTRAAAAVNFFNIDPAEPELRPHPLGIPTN
T1 sequence (P14416 whole entry): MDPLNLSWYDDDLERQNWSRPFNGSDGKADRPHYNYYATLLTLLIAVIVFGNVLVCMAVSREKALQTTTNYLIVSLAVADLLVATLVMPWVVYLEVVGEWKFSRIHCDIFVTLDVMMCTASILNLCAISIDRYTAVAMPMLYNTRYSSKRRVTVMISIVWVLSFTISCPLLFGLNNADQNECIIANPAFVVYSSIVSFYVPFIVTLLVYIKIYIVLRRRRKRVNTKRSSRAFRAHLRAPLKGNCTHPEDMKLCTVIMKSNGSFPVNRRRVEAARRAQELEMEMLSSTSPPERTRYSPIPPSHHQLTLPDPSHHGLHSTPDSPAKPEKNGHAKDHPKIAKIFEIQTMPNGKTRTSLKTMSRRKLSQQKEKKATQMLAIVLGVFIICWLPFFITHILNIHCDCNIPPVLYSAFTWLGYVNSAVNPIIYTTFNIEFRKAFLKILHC

Ki (D(2) dopamine receptor [2]; read-out: Ki) | Ki [6] | Ki [7] | Structure (SMILES) | further results
 | 870 nM | 26 nM | COc1ccccc1S(=O)(=O)n1cc2c3c(cccc31)N1CCNCC1C2 (configuration not stated) | 
 | 780 nM | 96 nM | Cc1ccc(S(=O)(=O)n2cc3c4c(cccc42)N2CCNCC2C3)cc1 (configuration not stated) | 
 | 470 nM | 21 nM | Cc1ccccc1S(=O)(=O)n1cc2c3c(cccc31)N1CCNCC1C2 (configuration not stated) | 
 | 460 nM |  | O=S(=O)(c1ccccc1Cl)n1cc2c3c(cccc31)N1CCNCC1C2 (configuration not stated) | 
 | 350 nM |  | O=S(=O)(c1ccccc1F)n1cc2c3c(cccc31)N1CCNCC1C2 (configuration not stated) | 
 | 340 nM | 47 nM | O=S(=O)(c1cccc(Cl)c1)n1cc2c3c(cccc31)N1CCNCC1C2 (configuration not stated) | 
 | 2900 nM | 168 nM | COc1ccc(S(=O)(=O)n2cc3c4c(cccc42)N2CCNCC2C3)cc1 (configuration not stated) | 
 | 240 nM | 0.75 nM | O=S(=O)(c1cccc(F)c1)n1cc2c3c(cccc31)N1CCNCC1C2 (configuration not stated) | Activity [5]: Active; Ratio Ki (tsA201): 250; clearance [3]: 13.3 mL/min/kg
 | 370 nM | 24 nM | COc1cccc(S(=O)(=O)n2cc3c4c(cccc42)N2CCNCC2C3)c1 (configuration not stated) | 
 | 1200 nM | 184 nM | O=S(=O)(c1ccc(Cl)cc1)n1cc2c3c(cccc31)N1CCNCC1C2 (configuration not stated) | 
 | 460 nM | 24 nM | Cc1cccc(S(=O)(=O)n2cc3c4c(cccc42)N2CCNCC2C3)c1 (configuration not stated) | 
130 nM |  |  | c1ccc(CN2CCN3c4cccc5[nH]cc(c45)CC3C2)cc1 (configuration not stated) | Intrinsic activity (D(2) dopamine receptor [1]): 51
 | 1100 nM | 29 nM | O=S(=O)(c1ccc(F)cc1)n1cc2c3c(cccc31)N1CCNCC1C2 (configuration not stated) | 
 | 280 nM | 9 nM | O=S(=O)(c1ccccc1)n1cc2c3c(cccc31)N1CCNCC1C2 (configuration not stated) | 

More lines, now with the values behind:

Structure (SMILES) | Ki (D(2) dopamine receptor [2]; read-out: Ki) | Ki [6] | Ki [7] | further results
c1ccc(-c2cccc(CN3CCN4c5cccc6[nH]cc(c56)CC4C3)c2)cc1 (configuration not stated) | 0.65 nM |  |  | Intrinsic activity (D(2) dopamine receptor [1]): 35; Ki (D(2) dopamine receptor [2]; read-out: pKi (converted)): 0.229 nM; clearance [3]: 65 mL/min/kg
Fc1ccc2c(CCNCc3cccc(OCC(F)(F)C(F)F)c3)c[nH]c2c1 [IDALOPIRDINE] |  |  |  | Ki [4]: 250 nM
CCCCCN1CCN2c3cccc4[nH]cc(c34)CC2C1 (configuration not stated) | 98 nM |  |  | 
c1ccc(-c2ccccc2CN2CCN3c4cccc5[nH]cc(c45)CC3C2)cc1 (configuration not stated) | 450 nM |  |  | Ki (D(2) dopamine receptor [2]; read-out: pKi (converted)): 200 nM
CC(C)CN1CCN2c3cccc4[nH]cc(c34)CC2C1 (configuration not stated) | 310 nM |  |  | 
COc1ccc(NS(=O)(=O)c2sc3ccc(Cl)cc3c2C)cc1N1CCNCC1 |  |  |  | Ki [4]: 770 nM
O=S(=O)(c1ccccc1)c1cnc2c(N3CCNCC3)cccc2c1 |  |  |  | Activity [5]: Active
CCN1CCN2c3cccc4[nH]cc(c34)CC2C1 (configuration not stated) | 140 nM |  |  | 
CN1C[C@@H](NS(=O)(=O)N(C)C)C[C@@H]2c3cccc4c3c(cn4C)C[C@H]21 [MESULERGINE] |  |  |  | Ki ([8]; read-out: Ki): 776 nM
CCCN1CCN2c3cccc4[nH]cc(c34)CC2C1 (configuration not stated) | 570 nM |  |  | 
CNc1cc(NS(=O)(=O)c2ccc(N)cc2)cc(NC)n1 |  |  |  | Ki ([8]; read-out: pKi (converted)): 12.3 nM
c1cc2c3c(c[nH]c3c1)CC1CN(CC3CCCCC3)CCN21 (configuration not stated) | 54 nM |  |  | Intrinsic activity (D(2) dopamine receptor [1]): 95
CC(C)CCN1CCN2c3cccc4[nH]cc(c34)CC2C1 (configuration not stated) | 24 nM |  |  | Intrinsic activity (D(2) dopamine receptor [1]): 96
c1cc2c3c(c[nH]c3c1)CC1CNCCN21 (configuration not stated) | 2100 nM |  |  | 
CN1CCN2c3cccc4[nH]cc(c34)CC2C1 (configuration not stated) | 660 nM |  |  | 
CCCCN1CCN2c3cccc4[nH]cc(c34)CC2C1 (configuration not stated) | 110 nM |  |  | 
c1ccc(-c2ccc(CN3CCN4c5cccc6[nH]cc(c56)CC4C3)cc2)cc1 (configuration not stated) | 140 nM |  |  | 
